Here are results for one compound from patent publication US7507823B2, “Process of making aripiprazole particles” (Bristol-Myers Squibb Company, priority 2004, dated 2009).

The data set in a line: Solubility of aripiprazole in n-propanol. The class given is physicochemical. As to conditions: organic solvent or mixture; solvent n-propanol (n-PrOH). As for the experimental part:
The solubility of aripiprazole in n-PrOH is low, only about 7 mg/ml. Therefore, a highly saturated solution could be produced with a very low solution concentration. At such low concentrations, the number of nucleation sites within the nozzle is low enough to prevent substantial blockages. When processing n-PrOH solutions at […], pressure fluctuations were reduced to a more satisfactory level of <35 bar. […] Water was again incorporated into the solution, in an attempt to produce the monohydrate. […] The sample was, however, anhydrous.

Molecules are shown by their SMILES. Values after ≈ are worked out from the molar mass of the structure shown.

By solubility is commonly meant how much of the substance goes into solution per volume. For the compound `O=C1CCc2ccc(OCCCCN3CCN(c4cccc(Cl)c4Cl)CC3)cc2N1` [aripiprazole, 7-(4-[4-(2,3-dichloropheny)-1-piperazinyl]-butoxy)-3,4-dihydro carbostyril], the solubility is around 7 mg/mL (≈ 15.6 mM).
